Assay results published in patent publication US11352382B2, “Mito-lonidamine, compositions and methods of use” (THE MEDICAL COLLEGE OF WISCONSIN, INC., priority 2018, dated 2022).

Columns and labels:
[1] = system: Pancreatic cancer cells; assay: Anti-proliferative effects in pancreatic cancer cells (number of cells over time); format: cell-based, human
Procedure: Pancreatic cancer cells were treated with either LND or Mito-LND at varying concentrations and the number of cells was assayed over time.

[2] = molecular target: T1, mitochondrial complex II (Homo sapiens, UniProt O14521+P21912+P31040+Q99643); assay: Mitochondrial complex II activity (OCR) in permeabilized H2030BrM3 cells after 24 h pretreatment; format: cell-based
T1 construct: we measured the activity of mitochondrial complexes in H2030BrM3 cells (NSCLC cell line); endogenous in cells; host or cells: H2030BrM3
T1 sequence (P31040 43-664): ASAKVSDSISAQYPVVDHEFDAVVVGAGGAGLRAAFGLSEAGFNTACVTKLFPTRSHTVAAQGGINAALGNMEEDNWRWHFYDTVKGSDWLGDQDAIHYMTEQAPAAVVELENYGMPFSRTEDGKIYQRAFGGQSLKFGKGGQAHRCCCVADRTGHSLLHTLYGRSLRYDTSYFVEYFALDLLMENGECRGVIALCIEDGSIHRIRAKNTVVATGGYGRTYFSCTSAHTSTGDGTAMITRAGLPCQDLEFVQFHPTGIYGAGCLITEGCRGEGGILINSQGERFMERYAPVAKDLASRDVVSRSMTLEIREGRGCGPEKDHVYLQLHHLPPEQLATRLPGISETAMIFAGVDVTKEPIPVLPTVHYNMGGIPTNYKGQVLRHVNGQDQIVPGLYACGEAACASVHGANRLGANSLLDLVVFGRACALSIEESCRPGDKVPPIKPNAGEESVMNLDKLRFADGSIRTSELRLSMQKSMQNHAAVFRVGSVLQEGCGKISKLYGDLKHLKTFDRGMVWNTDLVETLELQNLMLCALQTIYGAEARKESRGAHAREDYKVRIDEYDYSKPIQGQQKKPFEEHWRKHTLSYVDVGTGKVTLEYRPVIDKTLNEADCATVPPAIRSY
T1 sequence (P21912 29-280): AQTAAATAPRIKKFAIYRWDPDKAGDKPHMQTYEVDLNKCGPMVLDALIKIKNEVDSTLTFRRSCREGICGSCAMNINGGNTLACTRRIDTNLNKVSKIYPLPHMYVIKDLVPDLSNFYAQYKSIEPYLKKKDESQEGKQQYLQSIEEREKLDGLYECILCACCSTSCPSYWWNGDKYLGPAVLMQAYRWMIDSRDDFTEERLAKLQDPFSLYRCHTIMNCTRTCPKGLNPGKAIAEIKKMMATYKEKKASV
T1 sequence (Q99643 30-169): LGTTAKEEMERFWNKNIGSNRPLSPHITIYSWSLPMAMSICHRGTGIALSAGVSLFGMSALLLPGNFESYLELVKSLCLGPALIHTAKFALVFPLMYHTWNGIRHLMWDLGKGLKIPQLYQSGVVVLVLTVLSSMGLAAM
T1 sequence (O14521 57-159): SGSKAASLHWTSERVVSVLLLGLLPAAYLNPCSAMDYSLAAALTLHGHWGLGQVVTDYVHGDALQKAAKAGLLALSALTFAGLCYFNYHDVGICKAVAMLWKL
Text: (§1) LON and Mito-LON inhibit mitochondrial complex I activity. Mito-LON inhibited cellular respiration (oxygen consumption rate, OCR) at >100-fold lower concentration than LON in intact lung cancer cells (FIG. 9). Both basal respiration and the response to mitochondrial stressors (oligomycin, dinitrophenol) were diminished by Mito-LON (not shown). To investigate the mechanism of mitochondrial inhibition, we measured the activity of mitochondrial complexes in H2030BrM3 cells (NSCLC cell line). The cell membrane was permeabilized, and OCR was measured upon addition of substrates and inhibitors of mitochondrial complexes I-IV (FIG. 9A). These studies established the optimal use of permeabilized cells for complex activity assays.^54 Next, cells were pretreated with LON and Mito-LON for 24 h and experiments performed as in FIG. 9A. […] We hypothesize that inhibition of mitochondrial complexes I and II is the predominant mechanism for antiproliferative effects of Mito-LON on lung cancer cells.

[3] = system: mitochondrial Complex I; assay: Mitochondrial complex I activity (OCR) in permeabilized H2030BrM3 cells after 24 h pretreatment; format: cell-based, human
Text: as §1

[4] = system: mitochondrial complexes I and II; assay: Inhibition of mitochondrial complexes I and II, stated jointly; format: cell-based, human; details: for fold potency compared with LON/LDN, complexes I and II: H2030BrM3 lung cancer cells
Text: as §1

[5] = system: H2030 and H2030BrM3 cells; assay: Autophagy and mitophagy markers in cell lysates, MDC staining; format: cell-based, human
Procedure: Mito-LON induces autophagic cell death in human lung cancer cell lines and lung-derived brain metastatic lines. To investigate potential mechanisms underlying Mito-LON's induction of cancer cell death that result from its inhibition of mitochondrial respiration and induction of ROS, we analyzed lysates of cells treated with Mito-LON [2.0 μM] for 0, 6, 24 and 48 h. Lysates were probed for proteins targeting energetics, apoptosis and autophagy, including selective mitophagy markers. Our data (FIG. 19) show Mito-LON treatment [2.0 μM] modulates key autophagy proteins, including specific mitophagy receptors, adaptor proteins and energy sensing molecules in H2030 lung cancer cells and the corresponding brain metastatic line (H2030BrM3). LC3, microtubule-associated protein light chain 3, is critical for cargo recruitment. The LC3 precursor is modified via an ubiquitination-like system generating soluble LC3-I, which is further modified to LC3-II, a membrane-bound phospholipid conjugate upon autophagy induction. LC3-II integrates into the autophagosome membrane and is considered a reliable early marker of autophagy induction. Mito-LON treatment (FIG. 19A) increased levels of LC3-II 1.9 to 4.4-fold across cell lines, with sustained modulation through 48 h. The LC3-interacting region (LIR) serves as a mechanistic basis for selective autophagy, including mitophagy which specifically targets degradation of damaged mitochondria via engagement of adaptor proteins (p62, NBR1, OPTN, BNIP3L). We evaluated the effects of Mito-LON on ubiquitin-binding mitophagy receptors (p62, NDP52, NBR1) which also indicate autophagic flux versus potential impairment of autophagosome turnover. […] Changes were consistently bimodal in Mito-LON treated H2030 cells, potentially due to P62's dual role in mitophagy, both in clustering of mitochondria as well as downstream degradation. […] PINK1 was included as an indicator of PINK1-Parkin dependent mitophagy. Basal levels of PINK1 are normally low with increases due to mitochondrial depolarization, damage and ATP alterations, as noted in both cell lines. Beclin1 (BECN1), an autophagy regulator and potential tumor suppressor gene product in multiple cancers, including NSCLC.
Thus, autophagy induction in the lung derived brain metastatic line may be BECN1-independent. […] NRF2, a major regulator of cellular stress responses, was not detectable in either cell line. FIG. 19B further supports autophagy induction by Mito-LON. […] Specifically, Mito-LON alters phosphorylation events and activating partners in parallel. As an example, P-P70S6K^Thr389 phosphorylates mTOR^Ser2448; both reduced in Mito-LON treated cells. Similarly, ULK is activated by AMPK, and both phosphoproteins are decreased by Mito-LON, as is P-PTEN.

[6] = system: H2030 and H2030BrM3 cells; assay: Apoptosis markers in treated cells; format: cell-based, human
Text: Mito-LON's effects on inducing apoptosis in human lung cancer cell lines and their lung-derived brain metastatic lines. Results from Mito-LON-treated H2030 and H2030BrM3 cells (FIG. 20) supports cell death induction is mainly via autophagy rather than caspase-dependent apoptosis.

[7] = system: H2030BrM3 cells; assay: Cell proliferation, IncuCyte Live-Cell Imaging Analyzer (cell confluence); format: cell-based; details: Homo sapiens, H2030-BrM3, read-out: IC50, cell proliferation
Procedure: In contrast, Mito-LON (1.2-2.7 μM) targets mitochondrial complexes I and II (FIG. 9); its mitochondrial effects are supported by the compartment-selective oxidation of mitochondrial Prx3 (FIG. 13). The anti-proliferative effects of Mito-LON and LON were compared in H2030BrM3 cells.

[8] = system: A/J mice; assay: 8-week toxicology study (maximum tolerated dose, Modified Irwin Screen); format: in vivo, mouse
Text: Maximum tolerated dose (MTD) of Mito-LON. We conducted an 8-week toxicology study to evaluate possible toxicity of Mito-LON, especially on neural and muscle cells using a Modified Irwin Screen, developed as a comprehensive observational battery to broadly screen for central nervous system (CNS) effects of agents. Modifications of this test are extensively used in the pharmaceutical industry and in academic research to identify changes in neurological function as a result of agent intoxication, neurotoxicity, or genetic manipulation. The screen used here employs 35 distinct measurements to assess sensorimotor, neurological, and autonomic nervous system function^78. The effective dose (ED) of Mito-LON is designated as 7.5 μmol/kg based on our preliminary data (FIGS. 24 & 25).

**Q.** How did the IC50 ([1]; Homo sapiens, Pancreatic cancer cell, read-out: IC50, inhibiting the proliferation of cancer cells) turn out when O=C(NCCCCCCCCCC[P+](c1ccccc1)(c1ccccc1)c1ccccc1)c1nn(Cc2ccc(Cl)cc2Cl)c2ccccc12 [Mito-LON, Mito10-lonidamine] was run?
**A.** 0.64 µM

**Q.** What about the “fold more effective than LND in anti-proliferative effects” value ([1]; pancreatic cancer cells, FIG. 6) of the same molecule?
**A.** ~500 fold

**Q.** What about the “fold more potent than LON for complex II” value ([2]; 24 h pretreatment, FIG. 9B) of the same molecule?
**A.** 144 fold

**Q.** And the Ki ([2]; FIG. 9)?
**A.** 2.7 µM

**Q.** And the IC50 ([2]; H2030BrM3 lung cancer cells, FIG. 9, read-out: IC50, respiratory complex II)?
**A.** 2.7 µM

**Q.** And the “fold more potent than LON for complex I” value ([3]; 24 h pretreatment, FIG. 9B)?
**A.** 370 fold

**Q.** What about the Ki ([3]; FIG. 9) of the same molecule?
**A.** 1.2 µM

**Q.** And the IC50 ([3]; H2030BrM3 lung cancer cells, FIG. 9, read-out: IC50, respiratory complex I)?
**A.** 1.2 µM

**Q.** And the “concentration that targets mitochondrial complexes I and II” value ([4]; FIG. 9)?
**A.** 1.2 to 2.7 µM

**Q.** And the “fold potency compared with LON/LDN, complexes I and II” value ([4]; FIG. 9)?
**A.** over 100 fold

**Q.** What about the “fold potency compared with LON/LDN, complexes I and II” value ([4]; FIG. 9, listed as Mito-LDN) of the same molecule?
**A.** greater than 100 fold

**Q.** And the IC50 ([4]; read-out: IC50, inhibition of complex I and II, pretreatment of H2030BrM3 cells)?
**A.** ~2 µM

**Q.** What about the NDP52 ([5]; 2.0 μM) of the same molecule?
**A.** paralleled P62 changes

**Q.** What about the Beclin-1 levels ([5]; 2.0 μM, H2030 and H2030-BrM3 cells) of the same molecule?
**A.** increased Beclin-1 levels in H2030 cells but not in H2030-BrM3 cells

**Q.** And the “autophagic vacuolization (bright field)” value ([5]; 2.0 μM, H2030 cells)?
**A.** markedly increased vacuolization

**Q.** And the “monodansylcadaverine (MDC) staining” value ([5]; 2.0 μM, H2030 cells)?
**A.** stained positive for MDC

**Q.** What about the P62 ([5]; 2.0 μM, both cell lines) of the same molecule?
**A.** modulated P62 in both cell lines

**Q.** And the “autophagy-initiating energy-sensing proteins of the AKT/mTOR signaling pathway” value ([5]; FIG. 19C)?
**A.** deactivates

**Q.** And the RAB7 levels ([5]; H2030BrM3 cells)?
**A.** increased levels of RAB7

**Q.** What about the caspase cleavage [6] of the same molecule?
**A.** did not induce caspase cleavage

**Q.** What about the “cleaved PARP and cytochrome c levels” value [6] of the same molecule?
**A.** increased levels of cleaved PARP and cytochrome c

**Q.** And the IC50 [7]?
**A.** 0.7 µM

**Q.** And the toxicity overall ([8]; doses up to 50× ED)?
**A.** did not show any toxicity

**Q.** And the “body weights (and organ weights) and 35 Modified Irwin Screen metrics versus control” value ([8]; up to 50× ED, A/J mice, 8-weeks treatment)?
**A.** didn't observe any significant differences

**Q.** And the “toxic effects in neural tissue and muscles by histopathology, liver function (serum AST and ALT)” value ([8]; up to 50× ED, A/J mice, 8 weeks)?
**A.** No toxic effects
